pKi: −log10 of the molar value. Where two headings read alike, the source gives them in different places.
What was measured:
[1] = target: T1, dopamine transporter (DAT) (Rattus norvegicus, UniProt P23977); test: Competitive radioligand binding, [3H]WIN35428, rat brain lysates
T1 construct: from tissue; synaptosomes for uptake and release
Description: Radioligands used were: [^3H] Citalopram (PerkinElmer NET1039250UC); [^3H] Nisoxetine (PerkinElmer NET1084250UC); [^3H] WIN35428 (PerkinElmer NET1033250UC). […] Rat brains were dissected and tissue was homogenized in cold lysis buffer, centrifged at 100×g for 2 min and the supernatant was placed in a fresh tube. Supernatant was centrifuged at 13,000×g for 10 min at 4° C. to re-pellet the cell lysate. The pellet was resuspended in fresh wash buffer (50 mM Tris-HCl; 5 mM MgCl2; 5 mM EDTA) and centrifuged a third time. The pellet was then resuspended in wash buffer containing 10% sucrose as a cryoprotectant, divided into aliquots (0.3 mL) and stored at −80° C. A sample of the homogenate was analyzed for protein content using the SIGMA® BCA assay. On the day of the assay, the membrane preparation was thawed, and the pellet resuspended in final assay buffer. […] To each well was added 150 μL membranes, 50 μL of non-specific compound or buffer and 50 μL radioligand solution in buffer. […] Ki was subsequently calculated using the Cheng-Prusoff equation.

[2] = test system: myelin basic protein (MBP) in the amygdala; test: Immunohistochemistry of myelin basic protein; format: in vivo, rat; details: 10 mg/kg IP, single dose, 24 h
Description: Immunohistochemistry: The in-life portion of the study was conducted at WuXi Apptec (Cranbury, NJ). Sectioning and staining of brains took place at Neuroscience Associates (NSA, Knoxville, TN). […] Brains were post-fixed in PFA before shipment to NSA for processing and staining. Hemisected brains were mounted, sectioned and stained using standard protocols with myelin-basic protein primary antibody (MBP SMI-99, 1:5000, Biolegend, San Diego, CA) and anti-mouse biotinylated secondary antibody (BA-2001, Vector Laboratories, Newark, CA). Slides were imaged using a Huron Digital Pathology TissueScope LE120 whole slide scanning system. 20× objective was used with a 0.4 μm/pixel resolution.

rats = test: Reserpine-induced fibromyalgia model, von Frey test; format: in vivo, rat; details: methylone 15 mg/kg IP 30 min before vonFrey test, day 4
[3] = cited from earlier work

T1 sequence (P23977 whole entry): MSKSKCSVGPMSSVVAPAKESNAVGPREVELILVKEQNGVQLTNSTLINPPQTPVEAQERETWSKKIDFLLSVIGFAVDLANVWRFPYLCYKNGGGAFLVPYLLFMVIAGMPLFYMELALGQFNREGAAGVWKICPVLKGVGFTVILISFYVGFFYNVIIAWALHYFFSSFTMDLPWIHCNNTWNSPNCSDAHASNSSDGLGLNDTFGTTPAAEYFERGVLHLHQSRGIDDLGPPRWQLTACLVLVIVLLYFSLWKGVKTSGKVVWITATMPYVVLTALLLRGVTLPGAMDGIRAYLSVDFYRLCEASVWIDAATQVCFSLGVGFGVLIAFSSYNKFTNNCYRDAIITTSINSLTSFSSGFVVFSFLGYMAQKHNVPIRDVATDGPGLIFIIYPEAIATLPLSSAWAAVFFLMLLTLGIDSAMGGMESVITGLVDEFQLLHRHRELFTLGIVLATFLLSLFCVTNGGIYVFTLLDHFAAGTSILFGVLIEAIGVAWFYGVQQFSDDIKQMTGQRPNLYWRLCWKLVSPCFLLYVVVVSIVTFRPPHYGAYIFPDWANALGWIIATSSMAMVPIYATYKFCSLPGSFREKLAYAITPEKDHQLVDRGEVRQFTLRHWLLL

Compound: CNC(C)C(=O)c1ccc2c(c1)OCO2 (stereo not shown) [methylone, 3,4-methylenedioxy-N-methylcathinone]
- pKi [1]: 5.24
- MBP level in basolateral and central nuclei of the amygdala vs vehicle [2]: significant reduction in MBP
- paw withdrawal thresholds (rats): significantly increased paw withdrawal thresholds
- AUC24 hr, Mean ([3]; 50 mg oral, N = 3): (989, 4.5%) hr*μg/L
- AUCinf, Mean ([3]; 50 mg oral, N = 3): (1063, 6.9%) hr*μg/L
- Cmax, Mean ([3]; 50 mg oral, N = 3): (153.0, 18.9%) μg/L
- Half-life, Mean ([3]; 50 mg oral, N = 3): (6.3, 15%) hr
- AUC10 hr, Mean ([3]; 100 mg oral, N = 6): (1586, 23.1%) hr*μg/L
- AUC24 hr, Mean ([3]; 100 mg oral, N = 6): (2268, 20.4%) hr*μg/L
- AUCinf, Mean ([3]; 100 mg oral, N = 6): (2444, 18.3%) hr*μg/L
- Cmax, Mean ([3]; 100 mg oral, N = 6): (303.6, 45%) μg/L
- Half-life, Mean ([3]; 100 mg oral, N = 6): (6.1, 23.3%) hr
- Tmax, Min-Max ([3]; 100 mg oral, N = 6): (0.75-3) hr
- AUC10 hr, Mean ([3]; 150 mg oral, N = 5): (2236, 29.0%) hr*μg/L
- AUC24 hr, Mean ([3]; 150 mg oral, N = 5): (3349, 36.5%) hr*μg/L
- AUCinf, Mean ([3]; 150 mg oral, N = 5): (3777, 42.2%) hr*μg/L
- Cmax, Mean ([3]; 150 mg oral, N = 5): (354.6, 30.7%) μg/L
- Half-life, Mean ([3]; 150 mg oral, N = 5): (6.8, 23.3%) hr
- Tmax, Min-Max ([3]; 150 mg oral, N = 5): (1.5-4) hr
- AUC10 hr, Mean ([3]; 200 mg oral, N = 7): (3310, 17.9%) hr*μg/L
- AUC24 hr, Mean ([3]; 200 mg oral, N = 7): (4796, 23.2%) hr*μg/L
- AUCinf, Mean ([3]; 200 mg oral, N = 7): (5267, 25.1%) hr*μg/L
- Cmax, Mean ([3]; 200 mg oral, N = 7): (603.6, 20.6%) μg/L
- Half-life, Mean ([3]; 200 mg oral, N = 7): (6.6, 15.1%) hr
- Tmax, Min-Max ([3]; 200 mg oral, N = 7): (1-4) hr

— patent publication US20250332139A1, “PS[…] AND THEIR USE FOR TREATING […] AND NE[…] DISORDERS” (Transcend Therapeutics, Inc., priority 2021, published 2025)
